# Results taken from patent US20160305970A1, “CELL LINES AND METHODS FOR MAKING AND USING THEM” (Chromocell Corporation, priority 2008, published 2016).
# Columns and labels:
# [1] = tested on: GABAA (α1β3γ2s, α2β3γ2s, α3β3γ2s and α5β3γ2s); assay: In-cell readout assay using halide-sensitive meYFP, GABAA-meYFP-CHO cells; format: cell-based, human; details: increasing concentrations of GABA ligand
# Description: The response of GABAA (subunit combinations of α1β3γ2s (A1), α2β3γ2s (A2), α3β3γ2s (A3) and α5β3γ2s (A5)) expressing CHO cells of the invention to test compounds was evaluated using the following protocol for an in-cell readout assay.
# Cells were plated 24 hours prior to assay at 10-25,000 cells per well in 384 well plates in growth media (Ham's F-12 media plus FBS and glutamine). […] The assay plates were then loaded on the FDSS (Hamamatsu Corporation). […] The plates were read for 90 seconds.
# [2] = target: T1, GABAA α5β3γ2s (α5) (Homo sapiens, UniProt P18507+P28472+P31644); format: cell-based; details: CHO cell line α5β3γ2s, membrane potential assay
# T1 construct: expressed in transfected cells
# T1 sequence (P31644 32-462): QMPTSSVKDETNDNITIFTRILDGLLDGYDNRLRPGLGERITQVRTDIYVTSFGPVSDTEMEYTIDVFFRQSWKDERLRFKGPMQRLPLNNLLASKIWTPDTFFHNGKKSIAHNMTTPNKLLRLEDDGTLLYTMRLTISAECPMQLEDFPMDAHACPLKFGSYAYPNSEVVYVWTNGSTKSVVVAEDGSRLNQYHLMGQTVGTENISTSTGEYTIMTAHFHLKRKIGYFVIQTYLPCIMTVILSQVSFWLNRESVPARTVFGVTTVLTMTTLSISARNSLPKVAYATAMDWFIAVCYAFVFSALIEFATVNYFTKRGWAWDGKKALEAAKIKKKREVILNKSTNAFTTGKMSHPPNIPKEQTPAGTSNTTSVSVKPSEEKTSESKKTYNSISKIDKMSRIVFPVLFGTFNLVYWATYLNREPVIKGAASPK
# T1 sequence (P28472 26-473): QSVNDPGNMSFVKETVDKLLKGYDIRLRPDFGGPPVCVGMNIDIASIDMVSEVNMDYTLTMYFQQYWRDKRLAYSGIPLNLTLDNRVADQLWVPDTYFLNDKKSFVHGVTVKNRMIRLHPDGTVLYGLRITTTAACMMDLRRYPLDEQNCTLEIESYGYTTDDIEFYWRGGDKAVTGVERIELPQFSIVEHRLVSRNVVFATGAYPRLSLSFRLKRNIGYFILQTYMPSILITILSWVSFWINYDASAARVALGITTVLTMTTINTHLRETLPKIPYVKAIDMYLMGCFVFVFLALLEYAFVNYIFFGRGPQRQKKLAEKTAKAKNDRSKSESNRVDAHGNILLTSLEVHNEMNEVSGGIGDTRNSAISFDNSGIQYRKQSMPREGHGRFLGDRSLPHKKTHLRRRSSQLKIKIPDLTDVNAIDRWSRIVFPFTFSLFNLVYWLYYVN
# T1 sequence (P18507 40-467 isoform P18507-1 limits assumed): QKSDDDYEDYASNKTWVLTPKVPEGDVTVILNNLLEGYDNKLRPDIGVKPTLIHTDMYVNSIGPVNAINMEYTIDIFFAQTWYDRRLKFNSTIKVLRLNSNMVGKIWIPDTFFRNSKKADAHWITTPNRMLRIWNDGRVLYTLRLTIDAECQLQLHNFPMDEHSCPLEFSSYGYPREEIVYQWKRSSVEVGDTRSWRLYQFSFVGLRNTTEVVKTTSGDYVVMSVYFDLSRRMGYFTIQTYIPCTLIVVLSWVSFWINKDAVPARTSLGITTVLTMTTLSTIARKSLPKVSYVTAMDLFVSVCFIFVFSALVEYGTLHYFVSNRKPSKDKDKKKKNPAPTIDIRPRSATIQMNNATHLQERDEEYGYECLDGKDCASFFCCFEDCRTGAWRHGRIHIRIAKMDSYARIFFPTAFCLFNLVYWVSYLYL
# Description: Cells were plated 24 hours prior to assay at 10-25,000 cells per well in 384 well plates in growth media (Ham's F-12 media plus FBS and glutamine). […] Incubation was for 1 hour, followed by plate loading onto the high throughput fluorescent plate reader (Hamamastu FDSS). […] The plates were read for 90 seconds.
# [3] = tested on: human CFTR; assay: Fluorescence membrane potential assay, stable CFTR-expressing CHO cell line; format: cell-based; details: stable CFTR-expressing cell line, 15,000 cells/well, 384-well plate
# Description: Populations of cells were tested using functional criteria. Membrane potential dye kits (Molecular Devices, MDS) were used according to manufacturer's instructions. Cells were tested at varying densities in 384-well plates (i.e., 12.5×10^3 to 20×10^3 cells/per well) and responses were analyzed. Time between cell plating and assay read was tested. Dye concentration was also tested. Dose response curves and Z' scores were both calculated as part of the assessment of potential functionality. CHO cell lines stably expressing CFTR were maintained under standard cell culture conditions in Ham's F12 medium supplemented with 10% fetal bovine serum and glutamine. On the day before assay, the cells were harvested from stock plates and plated into black clear-bottom 384 well assay plates. The assay plates were maintained in a 37° C. cell culture incubator under 5% CO2 for 22-24 hours. […] For forskolin dose-response experiments, cells of the produced stable CFTR-expressing cell lines, plated at a density of 15,000 cells/well in a 384-well plate were challenged with increasing concentration of forskolin, a known CFTR agonist. The cellular response as a function of changes in cell fluorescence was monitored over time by a fluorescent plate reader (Hamamatsu FDSS). […]-1742 (2001)), indicating the potency of the clone.
# [4] = target: human GC-C (guanylate cyclase 2C, GUCY2C) (human) (UniProt P25092); assay: cell-based or functional assay
# Chain of human GC-C (guanylate cyclase 2C, GUCY2C) (human) (P25092 24-1073): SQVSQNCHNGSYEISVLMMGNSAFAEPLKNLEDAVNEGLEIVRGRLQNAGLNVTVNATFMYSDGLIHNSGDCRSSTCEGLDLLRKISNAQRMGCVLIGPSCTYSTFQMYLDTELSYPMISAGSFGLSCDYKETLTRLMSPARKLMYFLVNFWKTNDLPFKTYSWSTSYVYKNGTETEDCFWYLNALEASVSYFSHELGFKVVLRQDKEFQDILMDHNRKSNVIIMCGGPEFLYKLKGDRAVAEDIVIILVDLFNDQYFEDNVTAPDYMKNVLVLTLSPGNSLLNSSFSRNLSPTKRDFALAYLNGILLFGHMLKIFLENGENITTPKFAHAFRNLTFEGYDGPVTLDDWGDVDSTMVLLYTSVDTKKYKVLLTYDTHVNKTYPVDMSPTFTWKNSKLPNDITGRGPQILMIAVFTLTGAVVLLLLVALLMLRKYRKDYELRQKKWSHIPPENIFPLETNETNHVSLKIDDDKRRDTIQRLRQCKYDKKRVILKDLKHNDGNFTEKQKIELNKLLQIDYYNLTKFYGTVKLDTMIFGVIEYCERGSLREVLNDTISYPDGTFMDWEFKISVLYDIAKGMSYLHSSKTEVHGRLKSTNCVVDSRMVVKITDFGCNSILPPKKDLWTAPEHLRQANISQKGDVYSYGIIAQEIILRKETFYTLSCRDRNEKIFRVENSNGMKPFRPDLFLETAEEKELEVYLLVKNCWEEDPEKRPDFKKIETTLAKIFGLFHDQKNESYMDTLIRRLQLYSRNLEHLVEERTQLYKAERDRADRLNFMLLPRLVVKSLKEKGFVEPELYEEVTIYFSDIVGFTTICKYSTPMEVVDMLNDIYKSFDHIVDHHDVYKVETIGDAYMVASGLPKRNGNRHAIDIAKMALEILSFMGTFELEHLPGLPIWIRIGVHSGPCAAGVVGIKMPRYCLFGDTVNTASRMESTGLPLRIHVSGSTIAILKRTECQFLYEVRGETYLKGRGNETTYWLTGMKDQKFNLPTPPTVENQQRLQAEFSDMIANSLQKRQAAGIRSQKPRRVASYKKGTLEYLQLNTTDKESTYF
molecule,measurement,setting,value
NCCCC(=O)O [GABA],meYFP signal response,[1],increasing quench of meYFP signal
COc1cc(/C=C(\C#N)C(=O)c2ccc(O)c(O)c2)cc(I)c1O [I-OMe Tyrphostin 538],EC50 Values α5,[2],α5 Not active
C=C[C@@]1(C)CC(=O)[C@]2(O)[C@@]3(C)[C@@H](O)CCC(C)(C)[C@@H]3[C@H](O)[C@H](OC(C)=O)[C@@]2(C)O1 [forskolin],EC50,[3],0.256 µM
guanylin (peptide),"EC50 of the cellular response (absorbance as a function of changes in cGMP levels, Direct Cyclic GMP Enzyme Immunoassay Kit) to increasing guanylin",[4],0.0011 µM
same,level of cGMP,[4],6 pmol/mL
